Holding throughout (experiment): NCI tumour cell line growth inhibition, 48 h
Experiment [1] deals with DU-145.
Experiment [2] deals with OVCAR-5.
Experiment [3] relates to CCRF-CEM.
Experiment [4] has as its system UACC-62.
The subject of experiment [5] is SF-295.
For experiment [6], the system named is A549.
Experiment [7] concerns Malme-3M.
Experiment [8] relates to SW-620.
Experiment [9] deals with Hs-578T.
Experiment [10] concerns NCI-H23.
In experiment [11] the test system is OVCAR-3.
Experiment [12] concerns MOLT-4.
For experiment [13], the system named is A498.
In experiment [14] the test system is UO-31.
For experiment [15], the system named is LXFL 529.
In experiment [16] the test system is SK-OV-3.
Experiment [17] concerns SF-539.
Experiment [18] has as its system MDA-MB-435.
Experiment [19] relates to RPMI-8226.
Experiment [20] relates to SK-MEL-28.

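Assay format: 96-well plates, 48-hour exposure. GI50 is the concentration that inhibits growth by half.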 Activity calls are given as the source filed them. Rule as the data show it: active = GI50 up to about 1.1 µM and inactive = higher.

Take `CC(=O)C1(O)Cc2c(O)c3c(c(O)c2C(OC2CC(N)C(O)C(C)O2)C1)C(=O)c1ccccc1C3=O` (configuration not stated): the GI50 in experiment [1] was 0.0221 µM (active); in experiment [2], 0.141 µM (active); in experiment [3], 0.01 µM (active); in experiment [4], 0.0303 µM (active); in [5], 0.0141 µM (active); in experiment [6] it was 0.0248 µM (active). Moreover, the GI50 is 0.01 µM (active) in [7]; 0.0221 µM (active) in experiment [8]; 0.254 µM (active) in [9]; 0.0227 µM (active) in experiment [10]; 0.178 µM (active) in experiment [11]; 0.01 µM (active) in experiment [12]. Moreover, the GI50 is 0.0115 µM (active) in [13]; 0.042 µM (active) in [14]; < 0.0219 µM (active) in [15]; 0.161 µM (active) in [16]; 0.0163 µM (active) in [17]; 0.12 µM (active) in experiment [18].

As for `O=C(NP(=O)(N1CC1)N1CC1)c1cc(I)ccc1I` [DIIODBENZOTEPH], the GI50 in experiment [1] was 15.6 µM (inactive); in experiment [2] it was > 84.1 µM (inactive); in experiment [3] it was 4.86 µM (inactive); in experiment [4], 10.4 µM (inactive); in experiment [5] it was 30 µM (inactive); in experiment [6], 23.6 µM (inactive). Moreover, the GI50 was 50.4 µM (inactive) in [7]; 67.5 µM (inactive) in experiment [8]; 98.9 µM (inactive) in [9]; 10.9 µM (inactive) in experiment [10]; 36.6 µM (inactive) in experiment [11]; 5.58 µM (inactive) in experiment [12]. Further, the GI50 in experiment [13] is 64.4 µM (inactive); in [14], 28.1 µM (inactive); in experiment [15], > 100 µM (inactive); in experiment [19], 52.7 µM (inactive); in [16] it was 25.6 µM (inactive); in experiment [17], 23.9 µM (inactive). Moreover, the GI50 was 32.3 µM (inactive) in [18] and > 95.3 µM (inactive) in experiment [20].

`COC(=O)C1=C(C)N(NC(N)=O)C(C)(O)C12CCOC2=O` (configuration not stated): the GI50 in experiment [2] is > 100 µM (inactive); in experiment [3] it was > 100 µM (inactive); in experiment [4] it was > 10 µM (inactive); in experiment [5], > 100 µM (inactive); in experiment [6], > 100 µM (inactive); in experiment [7], > 100 µM (inactive). Besides, the GI50 in experiment [8], in experiment [10], in [11], in [12], in [13] and in experiment [14] was > 100 µM (inactive) throughout. The GI50 in experiment [15], in experiment [19], in experiment [16], in experiment [17] and in experiment [20] was > 100 µM (inactive) in each case.

As to `COc1ccccc1NC(=O)C1=C(C)NC(C)=C(C(=O)Nc2ccccc2OC)C1c1ccccc1F`, the GI50 was > 100 µM (inactive) in [2]; 54.3 µM (inactive) in experiment [3]; 81.7 µM (inactive) in experiment [4]; > 100 µM (inactive) in experiment [5]; 57.4 µM (inactive) in [6]; 63.1 µM (inactive) in [7]. Further, the GI50 was > 100 µM (inactive) in experiment [8]; > 100 µM (inactive) in experiment [10]; > 100 µM (inactive) in experiment [11]; 49.2 µM (inactive) in experiment [12]; > 100 µM (inactive) in experiment [13]; 62.7 µM (inactive) in experiment [14]. The GI50 in experiment [15] was 57.5 µM (inactive); in experiment [19], 62.1 µM (inactive); in [16] it was > 100 µM (inactive); in experiment [17] it was 30.5 µM (inactive); in [20] it was > 100 µM (inactive).

For the origin of these results see ChEMBL document CHEMBL1201862, “PubChem BioAssay data set” (2004).
